Here are results for 2 compounds from patent US20130071897A1, “METHOD FOR CONTROLLING UNDESIRABLE BYPRODUCTS FORMATION CAUSED BY CONTAMINATING ORGANISMS IN THE PRODUCTION OF ETHANOL FROM SYNGAS” (COSKATA, INC., priority 2011, published 2013).

Where “and” joins values, the source holds several entries; their conditions need not be identical. Identical values can stand only once. Some results are limits rather than exact numbers.

Holding throughout (type): cell-based
For assay [1], the system named is Clostridium tyrobutyricum. As to the kind of experiment: Butyric acid by gas chromatography in Clostridium tyrobutyricum batch fermentations. The conditions noted are these: 5 mM, duplicates A and B. The method, then: The concentration of butyric acid is determined by gas chromatography for several of the above samples at the stated points in time. The butyrate production is calculated based upon peak area calculations generated by the gas chromatograph. At 11 hours, the concentration of butyric acid for each of the controls is about 0.95 gram per liter, and the concentration of butyric acid for the samples containing 500 ppm of the inhibitor are about 0.6 gram per liter.
The concentration of butyric acid is determined by gas chromatography using the procedure set forth in Example 13. The control is reported only in Table 18.

Assay [2] concerns Clostridium carboxydivorans. Kind of assay: Balch tube batch growth of heteroacetogenic bacteria Clostridium carboxydivorans on fructose, optical density. On the set-up: key to Optical density valuation of C. carboxidivorans: +: bacterial growth to an OD of approximately 1.8; +/−: one duplicate test tube showed a + indication and the other showed an optical density of less than 0.5. The conditions noted are these: for Optical density valuation of C. carboxidivorans: added 20 h after inoculation; for Inhibition effect for reducing butyrogen growth: summary of Examples 1-5. On the procedure: Similar experiments were conducted to determine the effect of the crotonate derivatives on heteroacetogenic bacteria. Selected crotonate derivatives were tested in a series of batch experiments to determine the growth response of butyrogens to the presence of the compounds at varying concentrations. The batch experiments were all conducted by anoxically filling a 20 ml Balch tube with 5 ml of a fermentation medium having the composition given in Tables 2 and 3. The media included 0.5 v/v final concentration of a fructose substrate. For each of the crotonate concentrations tested, duplicate test tubes were prepared.
Each tube was inoculated with 0.5 ml of the heteroacetogenic bacteria Clostridium carboxydivorans. The tubes were maintained at a temperature of 37° C. At a time 20 hours after the inoculation of the bacteria different crotonate derivatives from Table 1 were added to different tubes in the amounts indicated in Table 7. This was at a time of early to mid-log phase growth. Each fermentation of the bacteria in the media at the different concentration of crotonate derivatives were allowed to progress and were monitored to determine the bacteria growth at selected intervals of time varying from approximately 20 hours to 54 hours. Growth at the different intervals was measured by reading the optical density (OD) of the fermentation liquid. Optical density was measured as described in Example 1. The ability of a tube fermentation at a particular concentration of crotonate derivative to reach a predetermined optical density was recorded in Table 7. Table 7 indicates the presence of bacterial growth to an OD of approximately 1.8 with a “+”.
Compound A was tested again in set of experiments in all respects the same as that described for Example 4 except that compound A was added to Balch tubes in the amounts indicated in Table 7 at a time 5.5 hours after the inoculation of the bacteria. This was at a time in early log phase growth. In this case the Balch tube that contained no compound A reached an OD of 2 after 29 hours or less.

In another assay the test system is C. carboxidivorans. Kind of assay: Product profiles of C. carboxidivorans cultures by GC-MSD. The conditions noted are these: 500 and 1000 ppm; 54 hour cultures. The method, then:
Product profiles were determined on the C. carboxidivorans cultures that grew in the presence of compound A. A GC-MSD was performed on 54 hour cultures and product distributions were calculated based on the resultant areas of the output (See FIG. 2). In cultures with no compound A addition, the distribution of C2, C4 and C6 acids and alcohols was similar in both samples. As the compound A concentration increased the amount of C2, particularly the alcohols, increased. […] Thus, such crotonate derivatives can effectively limit the amount of butyl impurity accumulation in the fermentation zone from heteroacetogens which can compete effectively in syngas cultures with homoacetogenic bacteria.

Consider `CCOC(=O)C=C(C(F)(F)F)C(F)(F)F` [Compound A, ethyl 4,4,4-trifluoro-3-(trifluoromethyl)crotonate], for which the “Butyrate Production” value in assay [1] (4.5 Hours) was 0.04 grams per liter; in assay [1] (6 Hours) it was 0.06 grams per liter and 0.05 grams per liter; in assay [1] (24 Hours), 0.10 grams per liter and 0.08 grams per liter. Also, the “Optical density valuation of C. carboxidivorans” value in assay [2] (100 ppm(m)), in assay [2] (500 ppm(m)) and in assay [2] (1000 ppm(m)) was “+ (bacterial growth to an OD of approximately 1.8)” in each case. The “OD of C. carboxidivorans tube fermentations” value in assay [2] (500 and 1000 ppm added 5.5 hours after inoculation) is reported as at most 0.5. In addition, the “Inhibition effect for reducing butyrogen growth” value in assay [2] was “showed inhibition effect”. Besides, the “Product distribution of C2, C4 and C6 acids and alcohols” value in the assay with C. carboxidivorans is “virtually all the product observed was the C2 alcohol”.

With `O=C(O)C=C(C(F)(F)F)C(F)(F)F` [D, 4,4,4-trifluoro-3-(trifluoromethyl)crotonic acid], the “Optical density valuation of C. carboxidivorans” value in assay [2] (100 ppm(m)) was “+ (bacterial growth to an OD of approximately 1.8)”; in assay [2] (500 ppm(m)), “+ (bacterial growth to an OD of approximately 1.8)”; in assay [2] (1000 ppm(m)), “+/−”. In addition, the “Inhibition effect for reducing butyrogen growth” value in assay [2] is on record as “showed inhibition effect”.
